The results in this text go back to patent US20260199255A1, “LIPID COMPOUNDS AND METHODS OF MAKING AND USE THEREOF” (Ohio State Innovation Foundation, priority 2022, published 2026).

Format in all cases: cell-based
Experiment [1] relates to Hep3B cell line. Description: luciferase mRNA delivery in the Hep3B cell line (in vitro LNP screening). To be noted: LNPs of bile acid derived lipid, DOPE, cholesterol and DMG-PEG; mRNA-encoding firefly luciferase; Hep3B cell line (FIG. 2). Here is the method:
(§1) Lipid nanoparticles (LNPs) with synthesized bile acid derived lipids, DOPE, cholesterol and DMG-PEG were prepared and screened in various cell lines using mRNA-encoding firefly luciferase (FIGS. 2-4).

Experiment [2] concerns JAWS2 cell line. Description: luciferase mRNA delivery in the JAWS2 cell line (in vitro LNP screening). To be noted: LNPs of bile acid derived lipid, DOPE, cholesterol and DMG-PEG; mRNA-encoding firefly luciferase; JAWS2 cell line (FIG. 3). Here is the method:
as §1

The test system of experiment [3] is C2C12 cell line. Description: luciferase mRNA delivery in the C2C12 cell line (in vitro LNP screening). As to conditions: LNPs of bile acid derived lipid, DOPE, cholesterol and DMG-PEG; mRNA-encoding firefly luciferase; C2C12 cell line (FIG. 4). On the procedure:
as §1

`CCCCCCCCCCCCN(CCCCCCCCCCCC)CCCCCCNC(=O)CC[C@@H](C)[C@H]1CC[C@H]2[C@@H]3CC[C@@H]4C[C@H](O)CC[C@]4(C)[C@H]3C[C@H](O)[C@]12C` [BAL6]: the mRNA delivery efficiency result in experiment [1] is on record as “more effective mRNA delivery efficiency than other LNPs”.
On to `CCCCCCCCCCCCN(CCCCCCCCCCCC)CCN(CCCCCCCCCCCC)CCNC(=O)CC[C@@H](C)[C@H]1CC[C@H]2[C@@H]3CC[C@@H]4C[C@H](O)CC[C@]4(C)[C@H]3C[C@H](O)[C@]12C` [BAL7], for which the mRNA delivery efficiency result in experiment [2] and in experiment [3] was “high mRNA delivery efficiency” in each case.
With `CCCCCCCCCCCCN(CCCCCCCCCCCC)CCN(CCCCCCCCCCCC)CCNC(=O)CC[C@@H](C)[C@H]1CC[C@H]2[C@@H]3[C@H](O)C[C@@H]4C[C@H](O)CC[C@]4(C)[C@H]3CC[C@]12C` [BAL11], the mRNA delivery efficiency entry in experiment [2] and in experiment [3] was “high mRNA delivery efficiency” each time.
